# Data from PubChem BioAssay AID330 (DTP/NCI, 2004).
# Inconclusive results and toxic doses are left out.
# System: P388 leukemia ip, CD2F1 mice, survival T/C
# Assay: NCI In Vivo Anticancer Drug Screen. Data for tumor model P388 Leukemia (intraperitoneal) in CD2F1 (CDF1) mice
# Settings: endpoint: median survival time, higher = longer survival
# Method in brief: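 Mice carrying the transplanted tumor received test compound or vehicle. Survival was recorded in each group, and the value is the treated-group measurement divided by that of the vehicle-treated control group.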
# [1] = dose: 6.25 mg/kg/injection, schedule: Q01DX009 (ip), vehicle: saline
# [2] = dose: 12.5 mg/kg/injection, schedule: Q01DX009 (ip), vehicle: saline
# [3] = dose: 25.0 mg/kg/injection, schedule: Q01DX009 (ip), vehicle: saline
# [4] = dose: 50.0 mg/kg/injection, schedule: Q01DX009 (ip), vehicle: saline
# [5] = dose: 50.0 mg/kg/injection, schedule: Q01DX005 (ip), vehicle: saline with Tween-80
# [6] = dose: 100.0 mg/kg/injection, schedule: Q01DX005 (ip), vehicle: saline with Tween-80
# [7] = dose: 200.0 mg/kg/injection, schedule: Q01DX005 (ip), vehicle: saline with Tween-80
# [8] = dose: 6.25 mg/kg/injection, schedule: Q01DX009 (ip), vehicle: saline with Tween-80
# [9] = dose: 12.5 mg/kg/injection, schedule: Q01DX009 (ip), vehicle: saline with Tween-80
# [10] = dose: 25.0 mg/kg/injection, schedule: Q01DX009 (ip), vehicle: saline with Tween-80
# [11] = dose: 50.0 mg/kg/injection, schedule: Q01DX009 (ip), vehicle: saline with Tween-80
# [12] = dose: 100.0 mg/kg/injection, schedule: Q01DX009 (ip), vehicle: saline with Tween-80
# [13] = dose: 200.0 mg/kg/injection, schedule: Q01DX009 (ip), vehicle: saline with Tween-80
# [14] = dose: 60.0 mg/kg/injection, schedule: Q01DX005 (ip), vehicle: saline with Tween-80
# [15] = dose: 120.0 mg/kg/injection, schedule: Q01DX005 (ip), vehicle: saline with Tween-80
# [16] = dose: 240.0 mg/kg/injection, schedule: Q01DX005 (ip), vehicle: saline with Tween-80
# [17] = dose: 16.5 mg/kg/injection, schedule: Q04DX003 (ip), vehicle: saline with Tween-80
# [18] = dose: 25.0 mg/kg/injection, schedule: Q04DX003 (ip), vehicle: saline with Tween-80
smiles,measurement,setting,value
COc1cc(/C=C(\C)[N+](=O)[O-])cc(Br)c1O,T/C,"dose: 100.0 mg/kg/injection, schedule: Q04DX003 (ip), vehicle: saline with Tween-80",100 % of control
same,T/C,"dose: 200.0 mg/kg/injection, schedule: Q04DX003 (ip), vehicle: saline with Tween-80",109 % of control
same,T/C,"dose: 400.0 mg/kg/injection, schedule: Q04DX003 (ip), vehicle: saline with Tween-80",94 % of control
COc1cccc2c1C(=O)c1c(O)c3c(c(O)c1C2=O)C[C@@](O)(C(=O)CO)C[C@@H]3OC1CC(NC(=S)Nc2ccc3ccccc3c2)C(O)C(C)O1 (some centres undefined),T/C,"dose: 3.13 mg/kg/injection, schedule: Q01DX009 (ip), vehicle: saline",92 % of control
same,T/C,[1],99 % of control
same,T/C,[2],99 % of control
same,T/C,[3],101 % of control
same,T/C,[4],108 % of control
COc1nc(N)nc2c1ncn2C1OC(CO)CC1O (centres undefined),T/C,[5],86 % of control
same,T/C,[6],88 % of control
same,T/C,[7],97 % of control
CCCCCCCCCCCCn1cc[n+](CC(=O)N(O)Cc2ccccc2)c1C,T/C,"dose: 1.56 mg/kg/injection, schedule: Q01DX005 (ip), vehicle: saline with Tween-80",93 % of control
same,T/C,"dose: 3.12 mg/kg/injection, schedule: Q01DX005 (ip), vehicle: saline with Tween-80",90 % of control
same,T/C,"dose: 6.25 mg/kg/injection, schedule: Q01DX005 (ip), vehicle: saline with Tween-80",86 % of control
CC(C)CNc1ccc(S(=O)(=O)c2ccc(NCC(C)C)c([N+](=O)[O-])c2)cc1[N+](=O)[O-],T/C,[8],98 % of control
same,T/C,[9],92 % of control
same,T/C,[10],87 % of control
same,T/C,[11],93 % of control
O=[N+]([O-])C1=CC(=N/Br)/C=CC/1=N/Br,T/C,[5],94 % of control
same,T/C,[6],100 % of control
same,T/C,[7],118 % of control
CC(=O)N1c2ccccc2Sc2ccc3ccccc3c21,T/C,[11],93 % of control
same,T/C,[12],100 % of control
same,T/C,[13],99 % of control
CCC/C(C)=N/NC(=S)SC,T/C,[1],100 % of control
same,T/C,[2],98 % of control
same,T/C,[3],98 % of control
CSc1nc2ccccc2[nH]1,T/C,[8],101 % of control
same,T/C,[9],106 % of control
same,T/C,[10],106 % of control
same,T/C,[11],110 % of control
O=C(COc1ccc(Cl)cc1Cl)Oc1c(Cl)c(Cl)c(Cl)c(Cl)c1Cl,T/C,[10],91 % of control
same,T/C,[11],91 % of control
same,T/C,[12],91 % of control
Nc1nc2nc3c(nc2c(=O)[nH]1)CCCC3,T/C,[14],101 % of control
same,T/C,[15],92 % of control
same,T/C,[16],90 % of control
O=NN(CCF)C(=O)NC1CCCCC1,T/C,[17],209 % of control
same,T/C,[18],225 % of control
COC(=O)c1noc2c1CSc1ccccc1-2,T/C,"dose: 100.0 mg/kg/injection, schedule: Q04DX002 (ip), vehicle: saline with Tween-80",104 % of control
same,T/C,"dose: 200.0 mg/kg/injection, schedule: Q04DX002 (ip), vehicle: saline with Tween-80",99 % of control
COc1nc(NCC(C)O)nc(NCC(C)O)n1 (centres undefined),T/C,[4],100 % of control
same,T/C,"dose: 100.0 mg/kg/injection, schedule: Q01DX009 (ip), vehicle: saline",89 % of control
same,T/C,"dose: 200.0 mg/kg/injection, schedule: Q01DX009 (ip), vehicle: saline",99 % of control
Nc1nc(-c2cc(-c3cccc4ccccc34)nc(N)n2)cc(-c2cccc3ccccc23)n1,T/C,"dose: 60.0 mg/kg/injection, schedule: Q01DX005 (ip), vehicle: suspension in saline",101 % of control
same,T/C,"dose: 120.0 mg/kg/injection, schedule: Q01DX005 (ip), vehicle: suspension in saline",100 % of control
same,T/C,"dose: 240.0 mg/kg/injection, schedule: Q01DX005 (ip), vehicle: suspension in saline",105 % of control
CC(=O)Nc1c(Cl)nc2cc(N(C)C)ccc2c1Cl,T/C,"dose: 60.0 mg/kg/injection, schedule: Q01DX005 (ip), vehicle: Klucel + Tween-80",97 % of control
same,T/C,"dose: 120.0 mg/kg/injection, schedule: Q01DX005 (ip), vehicle: Klucel + Tween-80",96 % of control
same,T/C,"dose: 240.0 mg/kg/injection, schedule: Q01DX005 (ip), vehicle: Klucel + Tween-80",97 % of control
O=C1CSC(=S)N1Cc1ccncc1,T/C,[11],97 % of control
same,T/C,[12],98 % of control
same,T/C,[13],101 % of control
NNC(=O)CC(NN)c1ccccc1O (centres undefined),T/C,[14],104 % of control
same,T/C,[15],105 % of control
same,T/C,[16],105 % of control
O=[N+]([O-])c1ccc(N/N=C/CCl)c([N+](=O)[O-])c1,T/C,"dose: 11.0 mg/kg/injection, schedule: Q04DX003 (ip), vehicle: Klucel (hydroxypropylcellulose) (HPC)",100 % of control
same,T/C,"dose: 11.0 mg/kg/injection, schedule: Q04DX003 (ip), vehicle: saline with Tween-80",108 % of control
same,T/C,"dose: 16.5 mg/kg/injection, schedule: Q04DX003 (ip), vehicle: Klucel (hydroxypropylcellulose) (HPC)",100 % of control
same,T/C,[17],100 % of control
same,T/C,"dose: 25.0 mg/kg/injection, schedule: Q04DX003 (ip), vehicle: Klucel (hydroxypropylcellulose) (HPC)",98 % of control
same,T/C,[18],108 % of control
same,T/C,"dose: 37.5 mg/kg/injection, schedule: Q04DX003 (ip), vehicle: Klucel (hydroxypropylcellulose) (HPC)",97 % of control
same,T/C,"dose: 37.5 mg/kg/injection, schedule: Q04DX003 (ip), vehicle: saline with Tween-80",104 % of control
N#C/C=C1/C=CC(O)CC1OC1OC(CO)C(O)C(O)C1O (centres undefined),T/C,"dose: 3.0 mg/kg/injection, schedule: Q01DX009 (ip), vehicle: saline",102 % of control
same,T/C,"dose: 6.0 mg/kg/injection, schedule: Q01DX009 (ip), vehicle: saline",101 % of control
same,T/C,"dose: 12.0 mg/kg/injection, schedule: Q01DX009 (ip), vehicle: saline",102 % of control
same,T/C,"dose: 24.0 mg/kg/injection, schedule: Q01DX009 (ip), vehicle: saline",104 % of control
CP1(=O)CC(=O)CCCCC(=O)C1,T/C,[1],104 % of control
same,T/C,[2],114 % of control
same,T/C,[3],104 % of control
same,T/C,[12],100 % of control
same,T/C,[13],98 % of control
Cc1cc(C)c(O)c(CS(=O)(=O)Cc2cc(C)cc(C)c2O)c1,T/C,"dose: 100.0 mg/kg/injection, schedule: Q04DX002 (ip), vehicle: saline",101 % of control
same,T/C,"dose: 200.0 mg/kg/injection, schedule: Q04DX002 (ip), vehicle: saline",97 % of control
same,T/C,"dose: 400.0 mg/kg/injection, schedule: Q04DX002 (ip), vehicle: saline",91 % of control
Cc1cc2c(C#N)c3ccccc3c(=O)n2c2ccccc12,T/C,"dose: 50.0 mg/kg/injection, schedule: Q01DX005 (ip), vehicle: Klucel (hydroxypropylcellulose) (HPC)",98 % of control
same,T/C,"dose: 100.0 mg/kg/injection, schedule: Q01DX005 (ip), vehicle: Klucel (hydroxypropylcellulose) (HPC)",96 % of control
same,T/C,"dose: 200.0 mg/kg/injection, schedule: Q01DX005 (ip), vehicle: Klucel (hydroxypropylcellulose) (HPC)",100 % of control
COc1ccc(-n2nc3c(ccc4ccccc43)c2N)cc1,T/C,[14],94 % of control
same,T/C,[15],95 % of control
same,T/C,[16],94 % of control
CCn1c(=O)oc2ccc(Br)cc21,T/C,"dose: 100.0 mg/kg/injection, schedule: Q04DX002 (ip), vehicle: Klucel (hydroxypropylcellulose) (HPC)",100 % of control
same,T/C,"dose: 200.0 mg/kg/injection, schedule: Q04DX002 (ip), vehicle: Klucel (hydroxypropylcellulose) (HPC)",98 % of control
same,T/C,"dose: 400.0 mg/kg/injection, schedule: Q04DX002 (ip), vehicle: Klucel (hydroxypropylcellulose) (HPC)",104 % of control
CC1([P+](C)(C)C)C2C=CC1CC2 (centres undefined),T/C,"dose: 25.0 mg/kg/injection, schedule: Q01DX001 (ip), vehicle: saline",100 % of control
same,T/C,"dose: 50.0 mg/kg/injection, schedule: Q01DX001 (ip), vehicle: saline",103 % of control
same,T/C,"dose: 100.0 mg/kg/injection, schedule: Q01DX001 (ip), vehicle: saline with Tween-80",105 % of control
same,T/C,"dose: 100.0 mg/kg/injection, schedule: Q01DX001 (ip), vehicle: saline",100 % of control
